Data from patent US20230002368A1, “USE OF COMPOUNDS FOR THE PREVENTION AND/OR TREATMENT OF ANKYLOSING SPONDYLITIS, AND CORRESPONDING COMPOSITIONS” (NUVAMID SA, priority 2019, published 2023).

Columns and labels:
[1] = test system: TgA86 mice as a model for ankylosing spondylitis; assay: TgA86 mouse model of ankylosing spondylitis: joint score and tail score; assay type: in vivo; conditions: male TgA86 mice, NMN 185 mg/kg intraperitoneally
Protocol: (§1) The efficacy of the use of NMN (compound IE) according to the invention was evaluated in 3-week-old TgA86 mice as a model for ankylosing spondylitis. TgA86 mice develop peripheral and axial AS with an incidence of 100%. In these mice, the peripheral form is manifested by joint welling and paw deformation, whilst the axial form is clinically characterised by curved tails and pelvic ankylosis.
(§2) In brief, male TgA86 mice were divided into two groups of 10 mice each: (i) a control group, in which the mice were treated with vehicle, i.e. a 0.9% NaCl solution (10 mL/kg), marked ‘Vehicle’; […] a group of mice treated with NMN (185 mg/kg), marked ‘NMN’. The solutions were injected intraperitoneally.
The mice were treated for 10 weeks under the conditions set forth supra. The joint score, tail score, and weight of the mice were measured every week. The joint score was determined in accordance with table 3 infra:
The tail score is an indicator that allows for an evaluation of the axial form of AS and pelvic ankylosis (see https://www.biomedcode.com/wp-content/uploads/2019/07/TgA86-white-paper.pdf). The tail score was determined in accordance with table 4 infra: […]

[2] = Weight and tolerance of treated TgA86 mice; assay type: in vivo; conditions: male TgA86 mice, NMN 185 mg/kg intraperitoneally, 10 weeks
Protocol: as §1, §2
The mice were treated for 10 weeks under the conditions set forth supra. The joint score, tail score, and weight of the mice were measured every week. The joint score was determined in accordance with table 3 infra: […]

## NC(=O)c1ccc[n+]([C@@H]2O[C@H](COP(=O)([O-])O)[C@@H](O)[C@H]2O)c1 [NMN, nicotinamide mononucleotide]
[1]; 10 weeks, vs vehicle control group (FIG. 2)
  average joint score (peripheral AS): reduction in the joint score of the mice compared to the control group
[1]; 10 weeks, vs vehicle control group (FIG. 3)
  average tail score (axial AS, pelvic ankylosis): reduces the tail score in the mice treated compared to the control group
[1]; T-test vs vehicle (FIG. 2)
  significance of the joint score reduction over time: particularly significant starting in the 5th week of treatment
[1]; T-test vs vehicle (FIG. 3)
  significance of the tail score reduction over time: significant starting in the second week of treatment
[2]
  tolerance / toxicity in the animals: well tolerated by the mice and does not cause any distress or toxicity in the animals
[2]; measured every week, vs vehicle (FIG. 1)
  development of the average weight of mice: follows a similar course of development to that of the control group
